According to PubChem BioAssay (NCI):
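48-hour exposure; five concentrations; linearly interpolated endpoints. GI50 marks 50% less growth. TGI is the concentration that stops growth completely.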

Columns and labels:
Experiment in all cases: growth of human tumour cells (NCI), 48 h
A498 renal = test system: A498 renal
SF-539 CNS = test system: SF-539 CNS
EKVX NSCLC = test system: EKVX NSCLC
HOP-62 NSCLC = test system: HOP-62 NSCLC
PC-3 prostate = test system: PC-3 prostate
786-0 renal = test system: 786-0 renal
NCI/ADR-RES ovarian = test system: NCI/ADR-RES ovarian
NCI-H226 lung = test system: NCI-H226 lung
OVCAR-4 ovarian = test system: OVCAR-4 ovarian
CAKI-1 renal = test system: CAKI-1 renal

Row | Compound | TGI (A498 renal) | TGI (SF-539 CNS) | TGI (EKVX NSCLC) | TGI (HOP-62 NSCLC) | TGI (PC-3 prostate) | TGI (786-0 renal) | TGI (NCI/ADR-RES ovarian) | TGI (NCI-H226 lung) | TGI (OVCAR-4 ovarian) | GI50 (CAKI-1 renal) | TGI (CAKI-1 renal) | GI50 (SF-539 CNS) | GI50 (EKVX NSCLC) | GI50 (HOP-62 NSCLC) | GI50 (PC-3 prostate) | GI50 (786-0 renal) | GI50 (NCI/ADR-RES ovarian) | GI50 (NCI-H226 lung) | GI50 (OVCAR-4 ovarian) | GI50 (A498 renal)
1 | CC1=CC2=C(C(N)=O)C(=O)OC2(C)C(c2ccccc2)C1 (stereo not given) | > 100 µM | > 100 µM | > 100 µM | > 100 µM | > 100 µM | > 100 µM | > 100 µM | > 100 µM | > 100 µM |  |  |  |  |  |  |  |  |  |  | 
2 | ICCC(c1ccccc1)(c1ccccc1)c1ccccc1 |  | 16.1 µM | 23.2 µM | 24 µM | 19.4 µM | 14.1 µM | 29.5 µM | 27.3 µM | 30.8 µM | 3.83 µM | 17.1 µM | 3.61 µM | 6.96 µM | 11.6 µM | 4.32 µM | 3.75 µM | 11.1 µM | 13.7 µM | 11.6 µM | 
3 | O=C(OCC1OC(OC(=O)c2cc(O)c(O)c(OC(=O)c3cc(O)c(O)c(O)c3)c2)C(OC(=O)c2cc(O)c(O)c(OC(=O)c3cc(O)c(O)c(O)c3)c2)C(OC(=O)c2cc(O)c(O)c(OC(=O)c3cc(O)c(O)c(O)c3)c2)C1OC(=O)c1cc(O)c(O)c(OC(=O)c2cc(O)c(O)c(O)c2)c1)c1cc(O)c(O)c(OC(=O)c2cc(O)c(O)c(O)c2)c1 (stereo not given) |  | 35.1 µM | > 50 µM | > 50 µM | > 50 µM | > 50 µM | > 50 µM | > 50 µM | > 50 µM | 9.63 µM | 47.5 µM | 11.7 µM | 13.5 µM | > 50 µM | 10.1 µM | 46.9 µM | 19.2 µM | 16.6 µM | 35.2 µM | 
4 | CC[C@H](C)[C@H](NC(=O)Nc1ccccc1)C(=O)N(C)[C@H](C[C@@H](OC(C)=O)c1nc(C(=O)N[C@@H](Cc2ccccc2)C[C@H](C)C(=O)OC)cs1)C(C)C |  | 6.85 µM | > 100 µM | > 100 µM | > 100 µM | > 100 µM | > 100 µM | > 100 µM | > 100 µM | 9.01 µM | > 100 µM | 2.37 µM | 5.36 µM | 3.66 µM | 3.47 µM | 3.56 µM | 54.2 µM | 8.83 µM | 6.06 µM | 
5 | CC(=O)C1C(=O)C(=O)N(c2ccccc2N2C(=O)C(=O)C(C(C)=O)C2=O)C1=O (stereo not given) | > 100 µM | > 100 µM | > 100 µM | > 100 µM |  | > 100 µM |  | > 100 µM | > 100 µM |  | > 100 µM |  |  |  |  |  |  |  |  | 
6 | Cc1ccc(S(=O)(=O)SCc2ccccc2CSS(=O)(=O)c2ccc(C)cc2)cc1 | > 100 µM | 36.2 µM | > 100 µM | > 100 µM |  | 34.4 µM |  | > 100 µM | 33.9 µM |  | 58.5 µM |  |  |  |  |  |  |  |  | 
7 | CC(=O)OCC1OC(n2c(=O)n(-c3ccccc3)c(=O)c3cc(Br)cc(Br)c32)C(OC(C)=O)C(OC(C)=O)C1OC(C)=O (stereo not given) | > 100 µM | > 100 µM | > 100 µM | > 100 µM |  | > 100 µM |  | > 100 µM | 61.5 µM |  | > 100 µM |  |  |  |  |  |  |  |  | 
8 | C#C[C@@]1(O)[C@@H](CO)O[C@@H](n2ccc3c(N)ncnc32)[C@@H]1O |  | 4.44 µM | 5.43 µM | 7.91 µM | 3.54 µM | 6.15 µM | 7.28 µM | 4.85 µM | 7.79 µM |  |  | 1.9 µM | 1.52 µM | 2.05 µM | 0.808 µM | 1.63 µM | 0.791 µM | 2.05 µM | 1.97 µM | 
9 | O=C(O)CCCCCO | > 100 µM | > 100 µM | > 100 µM | > 100 µM |  | > 100 µM |  | > 100 µM | > 100 µM |  | > 100 µM |  |  |  |  |  |  |  |  | 
10 | O=C(NNc1ccccc1)OCc1ccccc1 | > 100 µM | 10.3 µM |  | > 100 µM | > 100 µM | > 100 µM | > 100 µM |  | > 100 µM | 1.02 µM | 14.2 µM | 2.91 µM |  | 84.5 µM | 5.35 µM | 7.01 µM | 21.1 µM |  | 18.6 µM | 13.3 µM
11 | Cc1c(C(=O)/C=C/c2ccccc2Cl)[n+](=O)c2ccccc2n1[O-] | 26.9 µM | 29.4 µM | 31.1 µM | 34.2 µM |  | 25.3 µM |  | 28.8 µM | 25.8 µM |  | 10.6 µM |  |  |  |  |  |  |  |  | 
12 | O=C(CC(=O)Nc1ccccc1O)Nc1ccccc1O | > 100 µM | 35.1 µM | > 100 µM | > 100 µM |  | 36 µM |  | > 100 µM | > 100 µM |  | > 100 µM |  |  |  |  |  |  |  |  | 
13 | CC(=O)Nc1ccccc1-c1cnc2ccccc2n1 | > 100 µM | > 100 µM | > 100 µM | > 100 µM |  | > 100 µM |  | > 100 µM | > 100 µM |  | > 100 µM |  |  |  |  |  |  |  |  | 
14 | COc1ccc2[nH]c(=O)c(/C=C/C(=O)/C=C/c3ccc(O)c(OC)c3)cc2c1 |  | 3.21 µM | 4.35 µM | 4.75 µM | 4.94 µM | 3.17 µM | > 100 µM | 6.07 µM | 29.4 µM | 1.71 µM | 3.1 µM | 1.58 µM | 1.95 µM | 2.03 µM | 1.83 µM | 1.59 µM | 3.39 µM | 2.14 µM | 2.91 µM | 
15 | Cc1ccc(C2(O)CC(c3ccc([N+](=O)[O-])o3)=NN2C(=O)COc2ccccc2Cl)cc1 (stereo not given) | > 100 µM | 48.4 µM | 28.8 µM | 83.5 µM |  | > 100 µM |  | > 100 µM | > 100 µM |  | > 100 µM |  |  |  |  |  |  |  |  | 
16 | Cc1ccc2c(Nc3cccc(Cl)c3F)ncc(NC(=O)c3csc4c(N)ncnc34)c2c1 |  | > 100 µM | > 100 µM | > 100 µM | > 100 µM | > 100 µM | > 100 µM | > 100 µM | > 100 µM | 0.734 µM | > 100 µM | > 100 µM | > 100 µM | 0.359 µM | > 100 µM | > 100 µM | > 100 µM | > 100 µM | > 100 µM | 
17 | O=Cc1ccc(Oc2c3ccccc3nc3occc23)cc1 |  | 37.5 µM |  | 37.9 µM | 58.6 µM | 54.5 µM | 45 µM |  | 52.9 µM | 12.7 µM | 30.2 µM | 18.2 µM |  | 14.8 µM | 19.5 µM | 18.7 µM | 15.2 µM |  | 15.8 µM | 
18 | CCC[CH2][Ge]([CH2]CCC)([CH2]CCC)[O]C(=O)C(OC)c1ccccc1 (stereo not given) | > 100 µM | > 100 µM | > 100 µM | > 70.6 µM |  | > 100 µM |  | > 100 µM | > 100 µM | 70.1 µM | > 100 µM | 32.1 µM | 16.4 µM | 20.6 µM |  | 47.2 µM |  | 92.7 µM | 15.3 µM | 46.8 µM
